In patent publication US12077503B2, “Substituted cyclic amides and their use as herbicides” (FMC CORPORATION, priority 2015, dated 2024):
Read-outs that look alike come from different tables or passages of the source.

What was measured:
[1] = test system: barnyardgrass (Echinochloa crus-galli); assay: Test A postemergence; type: in vivo; settings: Echinochloa crus-galli, post-emergence, 240 h; for pest or weed control at 125 g/ha: 125 g ai/ha; for pest or weed control at 500 g/ha: 500 g ai/ha, 0 to 100 scale, 0 is no effect, 100 is complete control
Outline: (§1)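 Each rating is a visual injury score from 0 to 100 given about 10 d after treatment, judged against untreated controls kept alongside in the greenhouse. In loam soil–sand blend, seeds got a preemergence directed soil spray, while postemergence plants were 2 to 10 cm tall at spraying.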

[2] = test system: blackgrass (Alopecurus myosuroides); assay: Test A postemergence; type: in vivo; settings: Alopecurus myosuroides, post-emergence, 240 h; for pest or weed control at 125 g/ha: 125 g ai/ha; for pest or weed control at 500 g/ha: 500 g ai/ha, 0 to 100 scale, 0 is no effect, 100 is complete control
Outline: as §1

[3] = test system: Galium (catchweed bedstraw, Galium aparine); assay: Test A postemergence; type: in vivo; settings: Galium, post-emergence, 240 h; for pest or weed control at 125 g/ha: 125 g ai/ha; for pest or weed control at 500 g/ha: 500 g ai/ha, 0 to 100 scale, 0 is no effect, 100 is complete control
Outline: as §1

[4] = test system: pigweed (Amaranthus retroflexus); assay: Test A postemergence; type: in vivo; settings: Amaranthus retroflexus, post-emergence, 240 h; for pest or weed control at 125 g/ha: 125 g ai/ha; for pest or weed control at 500 g/ha: 500 g ai/ha, 0 to 100 scale, 0 is no effect, 100 is complete control
Outline: as §1

Kochia (Kochia scoparia) = assay: Test A postemergence; type: in vivo; settings: Bassia scoparia, post-emergence, 240 h; for pest or weed control at 125 g/ha: 125 g ai/ha; for pest or weed control at 500 g/ha: 500 g ai/ha, 0 to 100 scale, 0 is no effect, 100 is complete control
Outline: as §1

corn (Zea mays) = assay: Test A postemergence; type: in vivo; settings: Zea mays, post-emergence, 240 h; for plant injury at 125 g/ha / Corn plant response rating (crop injury, 0 = no effect, 100 = complete kill) at 125 g/ha: 125 g ai/ha; for plant injury at 125 g/ha / plant injury at 500 g/ha: postemergence; for Corn plant response rating (crop injury, 0 = no effect, 100 = complete kill) at 125 g/ha: Postemergence, visual injury after approximately 10 d, 0 to 100 scale where 0 is no effect and 100 is complete control; for plant injury at 500 g/ha: 500 g ai/ha, 0 to 100 scale, 0 is no effect, 100 is complete control
Outline: as §1

[5] = postemergence, visual injury rating after approximately 10 d, read-out: Barnyardgrass plant response rating (0 to 100 scale, 0 no effect, 100 complete control)
[6] = postemergence, visual injury rating after approximately 10 d, read-out: Blackgrass plant response rating (0 to 100 scale, 0 no effect, 100 complete control)
[7] = postemergence, visual injury rating after approximately 10 d, read-out: Galium plant response rating (0 to 100 scale, 0 no effect, 100 complete control)
[8] = postemergence, visual injury rating after approximately 10 d, read-out: Pigweed plant response rating (0 to 100 scale, 0 no effect, 100 complete control)
[9] = postemergence, visual injury rating after approximately 10 d, read-out: Kochia plant response rating (0 to 100 scale, 0 no effect, 100 complete control)
[10] = visual injury rating after approximately 10 d, read-out: Corn plant response rating (0 to 100 scale, 0 no effect, 100 complete control)
[11] = Postemergence, visual injury after approximately 10 d, 0 to 100 scale where 0 is no effect and 100 is complete control, read-out: Plant response rating, Barnyardgrass
[12] = Postemergence, visual injury after approximately 10 d, 0 to 100 scale where 0 is no effect and 100 is complete control, read-out: Plant response rating, Blackgrass
[13] = Postemergence, visual injury after approximately 10 d, 0 to 100 scale where 0 is no effect and 100 is complete control, read-out: Plant response rating, Galium
[14] = Postemergence, visual injury after approximately 10 d, 0 to 100 scale where 0 is no effect and 100 is complete control, read-out: Plant response rating, Pigweed
[15] = postemergence, visual injury on 0 to 100 scale (0 no effect, 100 complete control), approx. 10 d, read-out: Barnyardgrass plant response rating
[16] = postemergence, read-out: Barnyardgrass plant response rating
[17] = postemergence, visual injury on 0 to 100 scale (0 no effect, 100 complete control), approx. 10 d, read-out: Blackgrass plant response rating
[18] = postemergence, read-out: Blackgrass plant response rating
[19] = postemergence, visual injury on 0 to 100 scale (0 no effect, 100 complete control), approx. 10 d, read-out: Galium plant response rating
[20] = postemergence, read-out: Galium plant response rating
[21] = postemergence, visual injury on 0 to 100 scale (0 no effect, 100 complete control), approx. 10 d, read-out: Pigweed plant response rating
[22] = postemergence, read-out: Pigweed plant response rating
[23] = postemergence, visual injury on 0 to 100 scale (0 no effect, 100 complete control), approx. 10 d, read-out: Kochia plant response rating
[24] = postemergence, read-out: Kochia plant response rating
[25] = visual injury on 0 to 100 scale (0 no effect, 100 complete control), approx. 10 d, read-out: Corn plant response rating
[26] = read-out: Corn plant response rating

melting point	SMILES	pest or weed control at 125 g/ha [1, 5]	pest or weed control at 125 g/ha [2, 6]	pest or weed control at 125 g/ha [3, 7]	pest or weed control at 125 g/ha [4, 8]	pest or weed control at 125 g/ha (Kochia (Kochia scoparia); [9])	plant injury at 125 g/ha (corn (Zea mays); [10])	pest or weed control at 125 g/ha [1, 11]	pest or weed control at 125 g/ha [2, 12]	pest or weed control at 125 g/ha [3, 13]	pest or weed control at 125 g/ha [4, 14]	Corn plant response rating (crop injury, 0 = no effect, 100 = complete kill) at 125 g/ha (corn (Zea mays))	pest or weed control at 125 g/ha [1, 15]	pest or weed control at 500 g/ha [1, 16]	pest or weed control at 125 g/ha [2, 17]	pest or weed control at 500 g/ha [2, 18]	pest or weed control at 125 g/ha [3, 19]	pest or weed control at 500 g/ha [3, 20]	pest or weed control at 125 g/ha [4, 21]	pest or weed control at 500 g/ha [4, 22]	also measured
137 to 140 °C	COc1cccc(C2CN(C)C(=O)C2C(=O)Nc2cccc(F)c2F)c1 (centres unmarked) [Compound 886]	90%	20%	0%	0%	0%	40%	–	–	–	–	–	–	–	–	–	–	–	–	–	–
174 to 176 °C	Cc1ccc([C@H]2CCNC(=O)[C@@H]2C(=O)Nc2cccc(F)c2F)cc1 [Compound 973]	–	–	–	–	–	–	30%	60%	50%	0%	0%	–	–	–	–	–	–	–	–	–
142 to 146 °C	CN1CC(c2cccc(Br)c2)C(C(=O)Nc2ccccc2F)C1=O (centres unmarked) [Compound 1132]	–	–	–	–	–	–	–	–	–	–	–	90%	90%	30%	50%	0%	30%	0%	0%	pest or weed control at 125 g/ha (Kochia (Kochia scoparia); [23]): 0%; pest or weed control at 500 g/ha (Kochia (Kochia scoparia); [24]): 0%; plant injury at 125 g/ha (corn (Zea mays); [25]): 60%; plant injury at 500 g/ha (corn (Zea mays); [26]): 80%
133 to 137 °C	O=C1NC[C@H](c2ccc(F)c(OC(F)(F)C(F)(F)Br)c2)[C@H]1C(=O)Nc1ccccc1F [Compound 1134]	–	–	–	–	–	–	–	–	–	–	–	60%	80%	20%	50%	20%	70%	0%	20%	pest or weed control at 125 g/ha (Kochia (Kochia scoparia); [23]): 0%; pest or weed control at 500 g/ha (Kochia (Kochia scoparia); [24]): 30%; plant injury at 125 g/ha (corn (Zea mays); [25]): 20%; plant injury at 500 g/ha (corn (Zea mays); [26]): 20%

Continued, compound first:

SMILES	melting point	pest or weed control at 125 g/ha [1, 5]	pest or weed control at 125 g/ha [2, 6]	pest or weed control at 125 g/ha [3, 7]	pest or weed control at 125 g/ha [4, 8]	pest or weed control at 125 g/ha (Kochia (Kochia scoparia); [9])	plant injury at 125 g/ha (corn (Zea mays); [10])	pest or weed control at 125 g/ha [1, 11]	pest or weed control at 125 g/ha [2, 12]	pest or weed control at 125 g/ha [3, 13]	pest or weed control at 125 g/ha [4, 14]	Corn plant response rating (crop injury, 0 = no effect, 100 = complete kill) at 125 g/ha (corn (Zea mays))	pest or weed control at 125 g/ha [1, 15]	pest or weed control at 500 g/ha [1, 16]	pest or weed control at 125 g/ha [2, 17]	pest or weed control at 500 g/ha [2, 18]	pest or weed control at 125 g/ha [3, 19]	pest or weed control at 500 g/ha [3, 20]	pest or weed control at 125 g/ha [4, 21]	pest or weed control at 500 g/ha [4, 22]	also measured
CCc1cc([C@H]2CNC(=O)[C@@H]2C(=O)Nc2ccccc2F)cs1 [Compound 913]	96 to 100 °C	90%	0%	30%	0%	0%	0%	–	–	–	–	–	–	–	–	–	–	–	–	–	–
O=C1NC[C@H](c2cc(C(F)(F)F)ccn2)[C@H]1C(=O)Nc1ccccc1F [Compound 948]	115 to 119 °C	–	–	–	–	–	–	70%	0%	0%	0%	0%	–	–	–	–	–	–	–	–	pest or weed control at 125 g/ha (Kochia (Kochia scoparia); Postemergence, visual injury after approximately 10 d, 0 to 100 scale where 0 is no effect and 100 is complete control, read-out: Plant response rating, Kochia): 0%
